Results as given in patent US8501786B2, “Hydroxymethyl pyrrolidines as beta 3 adrenergic receptor agonists” (Merck Sharp & Dohme Corp., priority 2009, dated 2013).

biological target: T1, human β3 adrenergic receptor (Homo sapiens, UniProt P13945); assay: Functional assay: cAMP production (LANCE TR-FRET) in CHO cells stably transfected with cloned β3 adrenergic receptor; format: cell-based; settings: Table 3; cAMP production, CHO cells expressing human β3 AR; read-out: Human β3 functional
T1 construct: stably transfected with the cloned β-adrenergic receptor (β1, β2 or β3); expressed in transfected cells; host or cells: Chinese hamster ovary (CHO) cells, stably transfected
T1 sequence (P13945 whole entry): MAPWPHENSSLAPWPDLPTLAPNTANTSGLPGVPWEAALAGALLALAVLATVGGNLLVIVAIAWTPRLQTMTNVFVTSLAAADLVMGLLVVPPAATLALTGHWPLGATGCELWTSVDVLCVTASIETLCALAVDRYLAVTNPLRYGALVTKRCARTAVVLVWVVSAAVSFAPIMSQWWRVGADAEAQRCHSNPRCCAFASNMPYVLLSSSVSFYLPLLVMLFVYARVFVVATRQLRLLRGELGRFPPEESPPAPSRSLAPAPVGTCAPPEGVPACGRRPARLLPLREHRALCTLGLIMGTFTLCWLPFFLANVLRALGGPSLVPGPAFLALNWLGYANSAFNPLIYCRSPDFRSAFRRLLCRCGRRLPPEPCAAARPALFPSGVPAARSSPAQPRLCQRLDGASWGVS
Method: Functional Assay: cAMP production in response to ligand is measured according to Barton, et al. (1991, Agonist-induced desensitization of D2 dopamine receptors in human Y-79 retinoblastoma cells. Mol. Pharmacal. v3229:650-658) modified as follows, cAMP production is measured using a homogenous time-resolved fluorescence resonance energy transfer immunoassay (LANCE™, Perkin Elmer) according to the manufacture's instructions. Chinese hamster ovary (CHO) cells, stably transfected with the cloned β-adrenergic receptor (β1, β2 or β3) are harvested after 3 days of subculturing. Harvesting of cells is done with Enzyme-free Dissociation Media (Specialty Media). Cells are then counted and resuspended in assay buffer (Hank's Balanced salt solution supplemented with 5 mM HEPES, […]) containing a phosphodiesterase inhibitor (IBMX, 0.6 mM). The reaction is initiated by mixing 6,000 cells in 6 μL with 6 μL Alexa Fluor labeled cAMP antibody (LANCE™ kit) which is then added to an assay well containing 12 μL of compound (diluted in assay buffer to 2× final concentration). The reaction proceeds for 30 min at room temperature and is terminated by the addition of 24 ul detection buffer (LANCE™ kit). The assay plate is then incubated for 1 h at room temperature and time-resolved fluorescence measured on a Perkin Elmer Envision reader or equivalent. The unknown cAMP level is determined by comparing fluorescence levels to a cAMP standard curve.
The non-selective, full agonist β-adrenergic ligand isoproterenol is used at all three receptors to determine maximal stimulation. The human β3 adrenergic receptor (AR) selective ligand (S)-N-[4-[2-[[2-hydroxy-3-(4-hydroxyphenoxy)propyl]amino]ethyl]-phenyl]-4-iodobenzenesulfonamide is used as a control in all assays. Isoproterenol is titrated at a final concentration in the assay of 10^-10 M to 10-5 and the selective ligand (S)-N-[4-[2-[[2-hydroxy-3-(4-hydroxyphenoxy)propyl]amino]ethyl]phenyl]-4-iodobenzenesulfonamide is titrated at the β3 receptor at concentration of 10^-10 M to 10^-5 M. Unknown ligands are titrated at all 3 β-adrenergic receptor subtypes at a final concentration in the assay of 10^-10 M to 10^-5 M to determine the EC50. The EC50 is defined as the concentration of compound that gives 50% activation of its own maximum. Data are analyzed using Microsoft Excel and Graphpad Prism or an internally developed data analysis software package.

SMILES | EC50 [nM]
Nc1nc2c(s1)CCC2C(=O)Nc1ccc(CC2CC[C@H]([C@H](O)c3cccnc3)N2)cc1 (single isomer, unassigned) [Example 113] | < 1
Nc1nc2c(s1)CCC2C(=O)Nc1ccc(CC2CC[C@H]([C@H](O)c3cccnc3)N2)cc1 (single isomer, unassigned) [Example 114] | 11 to 100
Cc1nc2c(s1)CCC2C(=O)Nc1ccc(CC2CC[C@H]([C@H](O)c3cccnc3)N2)cc1 (single isomer, unassigned) [Example 115] | 1 to 10
Cc1nc2c(s1)CCC2C(=O)Nc1ccc(CC2CC[C@H]([C@H](O)c3cccnc3)N2)cc1 (single isomer, unassigned) [Example 116] | 101 to 1000
Cc1nc2c(s1)CCC2C(=O)Nc1ccc(CC2CC[C@H]([C@H](O)c3cccnc3)N2)cc1 (single isomer, unassigned) [Example 117] | 11 to 100
Cc1nc2c(s1)CCC2C(=O)Nc1ccc(CC2CC[C@H]([C@H](O)c3cccnc3)N2)cc1 (single isomer, unassigned) [Example 118] | 101 to 1000
CCc1nc2c(s1)CCC2C(=O)Nc1ccc(CC2CC[C@H]([C@H](O)c3cccnc3)N2)cc1 (single isomer, unassigned) [Example 119] | 101 to 1000
CCc1nc2c(s1)CCC2C(=O)Nc1ccc(CC2CC[C@H]([C@H](O)c3cccnc3)N2)cc1 (single isomer, unassigned) [Example 120] | 11 to 100
O=C(Nc1ccc(CC2CC[C@H]([C@H](O)c3cccnc3)N2)cc1)C1CCc2sc(C3CC3)nc21 (single isomer, unassigned) [Example 121] | 11 to 100
O=C(Nc1ccc(CC2CC[C@H]([C@H](O)c3cccnc3)N2)cc1)C1CCc2sc(C3CC3)nc21 (single isomer, unassigned) [Example 122] | 101 to 1000
CC(C)c1nc2c(s1)CCC2C(=O)Nc1ccc(CC2CC[C@H]([C@H](O)c3cccnc3)N2)cc1 (single isomer, unassigned) [Example 123] | 101 to 1000
CC(C)c1nc2c(s1)CCC2C(=O)Nc1ccc(CC2CC[C@H]([C@H](O)c3cccnc3)N2)cc1 (single isomer, unassigned) [Example 124] | 11 to 100
COCc1nc2c(s1)CCC2C(=O)Nc1ccc(CC2CC[C@H]([C@H](O)c3cccnc3)N2)cc1 (single isomer, unassigned) [Example 125] | 11 to 100
COCc1nc2c(s1)CCC2C(=O)Nc1ccc(CC2CC[C@H]([C@H](O)c3cccnc3)N2)cc1 (single isomer, unassigned) [Example 126] | 101 to 1000
O=C(Nc1ccc(CC2CC[C@H]([C@H](O)c3cccnc3)N2)cc1)C1CCc2cccnc21 (single isomer, unassigned) [Example 127] | 1 to 10
O=C(Nc1ccc(CC2CC[C@H]([C@H](O)c3cccnc3)N2)cc1)C1CCc2cccnc21 (single isomer, unassigned) [Example 128] | 1 to 10
Cc1nc2c(s1)CCC2(C)C(=O)Nc1ccc(CC2CC[C@H]([C@H](O)c3cccnc3)N2)cc1 (single isomer, unassigned) [Example 129] | 1000 to 3000
Cc1nc2c(s1)CCC2(C)C(=O)Nc1ccc(CC2CC[C@H]([C@H](O)c3cccnc3)N2)cc1 (single isomer, unassigned) [Example 130] | 101 to 1000
Cc1nc2c(s1)CCCC2C(=O)Nc1ccc(CC2CC[C@H]([C@H](O)c3cccnc3)N2)cc1 (single isomer, unassigned) [Example 131] | 1 to 10
Cc1nc2c(s1)CCCC2C(=O)Nc1ccc(CC2CC[C@H]([C@H](O)c3cccnc3)N2)cc1 (single isomer, unassigned) [Example 132] | 101 to 1000
Cc1nc2c(s1)CCCC2C(=O)Nc1ccc(CC2CC[C@H]([C@H](O)c3cccnc3)N2)cc1 (single isomer, unassigned) [Example 133] | 11 to 100
Cc1nc2c(s1)CCCC2C(=O)Nc1ccc(CC2CC[C@H]([C@H](O)c3cccnc3)N2)cc1 (single isomer, unassigned) [Example 134] | 11 to 100
O=C(Cc1nc2c(s1)CCC2C(=O)Nc1ccc(CC2CC[C@H]([C@H](O)c3cccnc3)N2)cc1)NCc1ccccc1 (single isomer, unassigned) [Example 135] | 11 to 100
O=C(Cc1nc2c(s1)CCC2C(=O)Nc1ccc(CC2CC[C@H]([C@H](O)c3cccnc3)N2)cc1)NCc1ccccc1 (single isomer, unassigned) [Example 136] | 1 to 10

SMILES | EC50 [nM]
O=C(O)c1nc2c(s1)CCC2C(=O)Nc1ccc(CC2CC[C@H]([C@H](O)c3cccnc3)N2)cc1 (single isomer, unassigned) [Example 137] | 1 to 10
O=C(O)c1nc2c(s1)CCC2C(=O)Nc1ccc(CC2CC[C@H]([C@H](O)c3cccnc3)N2)cc1 (single isomer, unassigned) [Example 138] | 11 to 100
O=C(Nc1ccc(CC2CC[C@H]([C@H](O)c3cccnc3)N2)cc1)C1CCCc2ccnn21 (single isomer, unassigned) [Example 139] | 101 to 1000
O=C(Nc1ccc(CC2CC[C@H]([C@H](O)c3cccnc3)N2)cc1)C1CCCc2ccnn21 (single isomer, unassigned) [Example 140] | 11 to 100
CC(C(=O)Nc1ccc(CC2CC[C@H]([C@H](O)c3cccnc3)N2)cc1)n1cncn1 (single isomer, unassigned) [Example 141] | 1 to 10
CC(C(=O)Nc1ccc(CC2CC[C@H]([C@H](O)c3cccnc3)N2)cc1)n1nccn1 (single isomer, unassigned) [Example 142] | 1 to 10
CC(C(=O)Nc1ccc(CC2CC[C@H]([C@H](O)c3cccnc3)N2)cc1)n1nccn1 (single isomer, unassigned) [Example 143] | 1 to 10
CC(C(=O)Nc1ccc(CC2CC[C@H]([C@H](O)c3cccnc3)N2)cc1)c1cnccn1 (single isomer, unassigned) [Example 144] | 1 to 10
CC(C(=O)Nc1ccc(CC2CC[C@H]([C@H](O)c3cccnc3)N2)cc1)c1cnccn1 (single isomer, unassigned) [Example 145] | 1 to 10
CC(F)(C(=O)Nc1ccc(CC2CC[C@H]([C@H](O)c3cccnc3)N2)cc1)c1ccccn1 (single isomer, unassigned) [Example 146] | 11 to 100
CC(F)(C(=O)Nc1ccc(CC2CC[C@H]([C@H](O)c3cccnc3)N2)cc1)c1ccccn1 (single isomer, unassigned) [Example 147] | 101 to 1000
CC(C(=O)Nc1ccc(CC2CC[C@H]([C@H](O)c3cccnc3)N2)cc1)n1ccnn1 (single isomer, unassigned) [Example 148] | 1 to 10
CC(C(=O)Nc1ccc(CC2CC[C@H]([C@H](O)c3cccnc3)N2)cc1)n1ccnn1 (single isomer, unassigned) [Example 149] | 1 to 10
COC(=O)c1cn(C(C)C(=O)Nc2ccc(CC3CC[C@H]([C@H](O)c4cccnc4)N3)cc2)nn1 (single isomer, unassigned) [Example 150] | 1 to 10
COC(=O)c1cn(C(C)C(=O)Nc2ccc(CC3CC[C@H]([C@H](O)c4cccnc4)N3)cc2)nn1 (single isomer, unassigned) [Example 151] | 11 to 100
Cc1nnc(C(C)C(=O)Nc2ccc(CC3CC[C@H]([C@H](O)c4cccnc4)N3)cc2)[nH]1 (single isomer, unassigned) [Example 152] | 1 to 10
Cc1nnc(C(C)C(=O)Nc2ccc(CC3CC[C@H]([C@H](O)c4cccnc4)N3)cc2)[nH]1 (single isomer, unassigned) [Example 153] | 11 to 100
Cc1[nH]nc2c1CCC2C(=O)Nc1ccc(CC2CC[C@H]([C@H](O)c3cccnc3)N2)cc1 (single isomer, unassigned) [Example 154] | 1 to 10
Cc1[nH]nc2c1CCC2C(=O)Nc1ccc(CC2CC[C@H]([C@H](O)c3cccnc3)N2)cc1 (single isomer, unassigned) [Example 155] | 11 to 100
O=C(Nc1ccc(CC2CC[C@H]([C@H](O)c3cccnc3)N2)cc1)C1CCc2sc(F)nc21 (single isomer, unassigned) [Example 156] | 1 to 10
O=C(Nc1ccc(CC2CC[C@H]([C@H](O)c3cccnc3)N2)cc1)C1CCc2sc(F)nc21 (single isomer, unassigned) [Example 157] | 1 to 10
O=C(Nc1ccc(CC2CC[C@H]([C@H](O)c3cccnc3)N2)cc1)C1CCc2sc(Br)nc21 (single isomer, unassigned) [Example 158] | < 1
O=C(Nc1ccc(CC2CC[C@H]([C@H](O)c3cccnc3)N2)cc1)C1CCc2sc(Br)nc21 (single isomer, unassigned) [Example 159] | 11 to 100
